Source: US20240279710A1, “FLUORESCENT PROBES” (TOHOKU TECHNO ARCH CO., LTD., priority 2021, published 2024)

What was measured:
[1] = target: T1, calpain-1 from human erythrocytes (Homo sapiens, UniProt P07384); test: Reactivity with calpain-1: absorption/fluorescence spectra and HPLC; type: biochemical; settings: 5 μM probe, calpain-1 100 units
T1 construct: calpain-1 from human erythrocytes; purchased Merck Millipore 208713; host or cells: human erythrocytes (natural source)
T1 sequence (P07384 1-714): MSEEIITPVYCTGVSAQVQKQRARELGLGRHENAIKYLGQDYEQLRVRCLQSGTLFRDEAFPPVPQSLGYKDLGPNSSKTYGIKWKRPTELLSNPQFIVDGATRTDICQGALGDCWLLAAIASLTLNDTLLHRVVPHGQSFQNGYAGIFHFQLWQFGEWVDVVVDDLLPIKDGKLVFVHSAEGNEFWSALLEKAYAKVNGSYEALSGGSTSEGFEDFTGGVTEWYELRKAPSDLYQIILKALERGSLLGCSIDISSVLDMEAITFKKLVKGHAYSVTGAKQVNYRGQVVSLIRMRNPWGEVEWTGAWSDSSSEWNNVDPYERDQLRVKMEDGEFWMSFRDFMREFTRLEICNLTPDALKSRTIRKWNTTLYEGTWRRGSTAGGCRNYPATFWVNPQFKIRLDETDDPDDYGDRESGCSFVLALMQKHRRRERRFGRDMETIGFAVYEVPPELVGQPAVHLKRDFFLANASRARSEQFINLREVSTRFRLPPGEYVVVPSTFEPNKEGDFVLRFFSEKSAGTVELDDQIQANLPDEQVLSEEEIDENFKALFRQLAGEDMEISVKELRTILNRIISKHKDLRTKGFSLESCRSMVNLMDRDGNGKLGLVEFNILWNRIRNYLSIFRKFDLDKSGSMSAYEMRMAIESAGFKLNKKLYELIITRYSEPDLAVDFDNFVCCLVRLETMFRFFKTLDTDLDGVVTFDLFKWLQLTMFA
T1 sequence (P04632 1-268 partner): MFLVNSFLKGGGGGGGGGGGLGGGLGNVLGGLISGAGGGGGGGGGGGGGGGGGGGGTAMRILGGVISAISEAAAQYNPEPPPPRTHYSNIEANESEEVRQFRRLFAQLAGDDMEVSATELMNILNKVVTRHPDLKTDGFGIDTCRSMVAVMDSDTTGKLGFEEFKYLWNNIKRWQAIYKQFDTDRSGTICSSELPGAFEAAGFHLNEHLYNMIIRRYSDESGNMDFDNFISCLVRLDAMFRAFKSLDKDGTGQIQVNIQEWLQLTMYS
Method: Calpain-1 was caused to act on Compound 19, and changes in absorption spectrum and fluorescence spectrum thereof were measured. Specifically, a solution (0.5 mM) of Compound 19 in DMSO and calpain-1 (100 units) (calpain-1 from human erythrocytes, Cat. No. 208713, Merck Millipore, the same holds true for the following) were added to a 50 mM TRIS buffer (pH: 7.4, 5 mM CaCl2, 100 mM NaCl, 1 mM EGTA) to produce 2 mL of a reaction solution (final probe concentration: 5 μM). An enzyme reaction was performed at 37° C. The fluorescence spectrum of the reaction solution was measured at an excitation wavelength of 490 nm. In addition, the reaction solution was analyzed by HPLC chromatography. Compound 19 to which calpain-1 was not added (final concentration: 5 μM) was used as a control.

[2] = target: T1, calpain-1 from human erythrocytes; test: Fluorescence assay with calpain-1; type: biochemical; settings: 10 μM probe, 17.4 U/mL calpain-1, 5 mM CaCl2, 37° C., FIG. 4
Method: The fluorescence assays of Compound 19 and Compound 16 with time were performed. Specifically, 17.4 U/mL of calpain-1 and 5 mM CaCl2 were added to a 50 mM TRIS buffer (pH: 7.4, 2 mM EGTA, 2 mM DTE) containing 10 μM of each of the synthesized fluorescent probes to perform an enzyme reaction at 37° C. Each of the compounds to which calpain-1 and CaCl2 were not added was similarly subjected as a negative control to the measurement.
The fluorescence assays of Compounds 16 to 36 were similarly performed. 50 Units per milliliter (Compounds 16 and 19 to 25) or 17.4 U/mL (Compounds 16 to 18 and 26 to 36) of calpain-1 and 5 mM CaCl2 were added to a 50 mM TRIS buffer (pH: 7.4, 2 mM EGTA, 2 mM DTE) containing 10 μM of each of the synthesized fluorescent probes to perform an enzyme reaction at 37° C.
Next, similar fluorescence assays of Compounds 37, 42, 45, 48, 51, 53, 55, 57, and 59 with calpain-1 were performed. Specifically, 17.4 U/mL of calpain-1 and 5 mM CaCl2 were added to a 50 mM TRIS buffer (pH: 7.4, 2 mM EGTA, 2 mM DTE) containing 10 μM of each of the synthesized fluorescent probes to perform an enzyme reaction at 37° C. Each of the compounds to which calpain-1 was not added was used as a control.
To evaluate an influence of a R^12-L-O— group on the reactivity of each of compounds having the same amino acids with calpain-1, the fluorescence assays of Compounds 37 to 66 with calpain-1 were performed in accordance with the above-mentioned method. Specifically, 17.4 U/mL of calpain-1 and 5 mM CaCl2 were added to a 50 mM TRIS buffer (pH: 7.4, 2 mM EGTA, 2 mM DTE) containing 10 μM of each of the synthesized fluorescent probes to perform an enzyme reaction at 37° C., followed by the measurement of an increase in fluorescence intensity of each of the compounds 10 minutes after the addition of calpain-1.

retinal ganglion cells = test: Glutamic acid injury of retinal ganglion cells isolated from iPS cell-derived retinal tissue; type: cell-based, human; settings: glutamic acid 300 μM, probe 5 μM added 1 hour later, imaged 1 hour thereafter; FIG. 24
Method: A glutamic acid injury model that activated a calpain to induce a retinal ganglion cell injury was produced from the iPS cell-derived three-dimensional stereoscopic retinal tissue, and calpain activity with Compound 19 was evaluated by using the model. First, to identify a retinal ganglion cell injury caused by a glutamic acid injury, retinal ganglion cells were isolated from the iPS cell-derived three-dimensional stereoscopic retinal tissue with auto MACS pro (trademark) and CD90 MicroBeads. Glutamic acid (final concentration: 300 μM) was added to the cells to be caused to react therewith for 1 hour. Compound 19 (final concentration: 5 μM) was added thereto 1 hour after the addition of glutamic acid, and images of the state and fluorescence of the cells were taken (RGB and B/W modes) with a fluorescence microscope (ZEISS Axio Vert.A1) 1 hour thereafter.

## COCC(=O)N[C@@H](CC(C)C)C(=O)N[C@@H](CCSC)C(=O)Nc1ccc2c(c1)Oc1cc(N)ccc1C21OCc2ccccc21 (some centres unmarked) [Compound 19]
[1]; 50 mM TRIS pH 7.4, 5 mM CaCl2, 37° C., excitation 490 nm
  changes in absorption spectrum and fluorescence spectrum by addition of calpain-1: increases in absorbance and fluorescence intensity
[1]; 37° C.
  change in HPLC chromatogram by addition of calpain-1 (reaction product): produced HMRG serving as a fluorescent substance
[2]; excitation 475 nm, fluorescence 500-550 nm
  change in fluorescence intensity with time by calpain-1: functioned as a fluorescent probe for calpain-1
[2]
  reactivity with calpain-1 compared with Compound 16 (fluorescence with time): further improved in reactivity with calpain-1
Retinal ganglion cells
  fluorescence of isolated retinal ganglion cells: enhancement of the fluorescence
